For 60 compounds, IC50 and inhibition results are on record in ChEMBL document CHEMBL5241111, “Non-steroidal anti-inflammatory drugs: recent advances in the use of synthetic COX-2 inhibitors” (RSC Med Chem, 2022).

The target of one assay is T1, Prostaglandin G/H synthase 2 (Homo sapiens, UniProt P35354).
T1 sequence (P35354 whole entry): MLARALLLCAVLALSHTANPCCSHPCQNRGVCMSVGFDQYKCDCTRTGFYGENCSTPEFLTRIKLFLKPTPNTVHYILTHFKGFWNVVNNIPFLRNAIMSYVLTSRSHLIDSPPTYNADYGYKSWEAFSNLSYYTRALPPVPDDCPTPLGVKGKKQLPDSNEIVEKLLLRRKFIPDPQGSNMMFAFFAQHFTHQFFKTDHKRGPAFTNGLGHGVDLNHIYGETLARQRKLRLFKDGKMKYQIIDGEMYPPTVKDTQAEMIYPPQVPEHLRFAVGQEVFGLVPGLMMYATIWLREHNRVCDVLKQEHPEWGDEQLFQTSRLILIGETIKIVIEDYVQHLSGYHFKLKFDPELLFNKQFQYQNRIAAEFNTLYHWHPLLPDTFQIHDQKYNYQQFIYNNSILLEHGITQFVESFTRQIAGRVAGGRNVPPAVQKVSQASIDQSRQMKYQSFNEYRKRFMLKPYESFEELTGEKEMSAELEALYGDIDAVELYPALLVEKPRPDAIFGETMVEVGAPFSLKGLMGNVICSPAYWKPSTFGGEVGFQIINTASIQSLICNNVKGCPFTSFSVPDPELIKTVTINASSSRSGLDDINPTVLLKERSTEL
The assay can be described thus: Inhibition of COX-2 (unknown origin) by colorimetric assay.
Conditions: not given
On to `C=CCn1c(-c2ccc(C)cc2)cs/c1=N\NC(=O)c1cc(NCCCC)c(Oc2ccccc2)c(S(N)(=O)=O)c1`, for which the IC50 stood at 1520 nM.

For `C=CCn1c(-c2ccc(OC)cc2)cs/c1=N\NC(=O)c1cc(NCCCC)c(Oc2ccccc2)c(S(N)(=O)=O)c1`, half-maximal inhibition (IC50) was put at 1520 nM.

In the case of `CCCCNc1cc(C(=O)N/N=c2\scc(-c3ccc(OC)cc3)n2-c2ccccc2)cc(S(N)(=O)=O)c1Oc1ccccc1`, the 50% inhibitory concentration (IC50) came to 1520 nM.

With `CCCCNc1cc(C(=O)N2N=C(C)CC2=O)cc(S(N)(=O)=O)c1Oc1ccccc1`, the half-maximal inhibitory concentration (IC50) came out at 5110 nM.

The compound `CCCCNc1cc(C(=O)N/N=c2\scc(-c3ccc(Cl)cc3)n2-c2ccccc2)cc(S(N)(=O)=O)c1Oc1ccccc1` displayed an IC50 of 1520 nM.

On to `C=CCn1c(-c2ccc(Cl)cc2)cs/c1=N\NC(=O)c1cc(NCCCC)c(Oc2ccccc2)c(S(N)(=O)=O)c1`, for which half-maximal inhibition (IC50) was put at 1520 nM.

For `CCCCNc1cc(C(=O)N/N=c2\scc(-c3ccc(C)cc3)n2-c2ccccc2)cc(S(N)(=O)=O)c1Oc1ccccc1`, the 50% inhibitory concentration (IC50) came to 1520 nM.

The compound `CCCCNc1cc(C(=O)n2nc(C)cc2C)cc(S(N)(=O)=O)c1Oc1ccccc1` had an IC50 of 4750 nM.

In the case of `C=CCc1ccc(-n2c(-c3cc(NCCCC)c(Oc4ccccc4)c(S(N)(=O)=O)c3)n[nH]c2=S)cc1`, it took 4590 nM to reach half-maximal inhibition (IC50).

With `CCCCNc1cc(-c2n[nH]c(=S)o2)cc(S(N)(=O)=O)c1Oc1ccccc1`, the IC50 turned out to be 5730 nM.

On to `CCCCNc1cc(-c2n[nH]c(=S)n2-c2ccccc2)cc(S(N)(=O)=O)c1Oc1ccccc1`, for which the midpoint of inhibition, the IC50, lay at 280 nM.

The compound `CCCCNc1cc(C(=O)N/N=c2\scc(-c3ccc(OC)cc3)n2-c2ccc(Br)cc2)cc(S(N)(=O)=O)c1Oc1ccccc1` registered an IC50 of 1520 nM.

Turning to `CCCCNc1cc(C(=O)N/N=c2\scc(-c3ccc(Cl)cc3)n2-c2ccc(Br)cc2)cc(S(N)(=O)=O)c1Oc1ccccc1`, the half-inhibitory concentration (IC50) came out at 1520 nM.

Compound `CCCCNc1cc(C(=O)N/N=c2\scc(-c3ccc(C)cc3)n2-c2ccc(Br)cc2)cc(S(N)(=O)=O)c1Oc1ccccc1` came in with an IC50 of 1520 nM.

A further assay addresses T2, Prostaglandin G/H synthase 2 (Homo sapiens) (UniProt P35354).
T2 sequence (whole entry): T1 sequence (P35354 whole entry)
Conditions: dose 2-10 nM, time 1.0 min.
Turning to `Cc1sc(/C=C2\CN(C)CC3C2=NN(c2ccccc2)C3c2cc(Br)c(C)s2)cc1Br` (stereo not given), the inhibition was less than 98%.

Compound `CN1C/C(=C\c2ccc(F)s2)C2=NN(c3ccccc3)C(c3ccc(F)s3)C2C1` (stereo not given) came in with an inhibition of less than 98%.

`Cc1ccc(/C=C2\CN(C)CC3C2=NN(c2ccccc2)C3c2ccc(C)s2)s1` (stereo not given) had an inhibition of less than 98%.

`CN1C/C(=C\c2ccc(O)s2)C2=NN(c3ccccc3)C(c3ccc(O)s3)C2C1` (stereo not given) gave an inhibition of less than 98%.

`CN1C/C(=C\c2ccc(Cl)s2)C2=NN(c3ccccc3)C(c3ccc(Cl)s3)C2C1` (stereo not given) yielded an inhibition of less than 98%.

Regarding `CN1C/C(=C\c2ccc([N+](=O)[O-])s2)C2=NN(c3ccccc3)C(c3ccc([N+](=O)[O-])s3)C2C1` (stereo not given), the inhibition was less than 98%.

The compound `CN1C/C(=C\c2ccc(Br)s2)C2=NN(c3ccccc3)C(c3ccc(Br)s3)C2C1` (stereo not given) gave an inhibition of less than 98%.

Turning to `Cc1csc(/C=C2\CN(C)CC3C2=NN(c2ccccc2)C3c2cc(C)cs2)c1` (stereo not given), the inhibition is less than 98%.

`Cc1sc(/C=C2\CN(C)CC3C2=NN(c2ccccc2)C3c2cc(F)c(C)s2)cc1F` (stereo not given) registered an inhibition of less than 98%.

`CCc1ccc(/C=C2\CN(C)CC3C2=NN(c2ccccc2)C3c2ccc(CC)s2)s1` (stereo not given) returned an inhibition of less than 98%.

The target in another assay is T3, Polyunsaturated fatty acid 5-lipoxygenase (Homo sapiens, UniProt P09917).
T3 sequence (P09917 whole entry): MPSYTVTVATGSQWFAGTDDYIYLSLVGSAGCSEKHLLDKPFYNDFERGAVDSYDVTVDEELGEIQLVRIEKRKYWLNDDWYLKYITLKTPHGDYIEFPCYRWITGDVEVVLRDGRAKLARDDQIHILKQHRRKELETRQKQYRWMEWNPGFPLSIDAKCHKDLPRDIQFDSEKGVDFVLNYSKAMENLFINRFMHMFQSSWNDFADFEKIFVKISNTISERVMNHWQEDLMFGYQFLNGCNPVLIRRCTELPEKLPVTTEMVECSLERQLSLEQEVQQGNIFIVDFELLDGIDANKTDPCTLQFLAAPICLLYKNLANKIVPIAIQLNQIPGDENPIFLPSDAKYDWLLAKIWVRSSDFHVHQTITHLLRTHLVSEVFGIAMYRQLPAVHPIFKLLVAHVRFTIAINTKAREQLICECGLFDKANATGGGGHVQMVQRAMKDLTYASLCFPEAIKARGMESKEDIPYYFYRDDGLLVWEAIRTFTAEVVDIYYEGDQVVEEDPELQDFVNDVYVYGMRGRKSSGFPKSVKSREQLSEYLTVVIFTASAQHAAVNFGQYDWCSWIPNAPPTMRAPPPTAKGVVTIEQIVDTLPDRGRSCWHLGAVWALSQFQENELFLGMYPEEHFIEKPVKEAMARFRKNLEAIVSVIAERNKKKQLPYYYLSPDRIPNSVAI
The assay can be described thus: Inhibition of 5-LOX (unknown origin) using linoleic acid as substrate preincubated for 5 mins followed by substrate addition by absorbance based analysis.
Conditions: not given
On to `O=C(/N=c1/scc(-c2ccccc2)n1-c1ccccc1)c1cccs1`, for which half-maximal inhibition (IC50) required 380 nM.

`N#Cc1ccc(-c2nc(N3CCOCC3)sc2C(=O)c2cccs2)cc1` came in with an IC50 of 380 nM.

Take `O=C(/N=c1\scc(-c2ccc([N+](=O)[O-])cc2)n1-c1ccccc1)c1cccs1`: half-maximal inhibition (IC50) was put at 380 nM.

Compound `O=C(c1cccs1)c1sc(N2CCOCC2)nc1-c1ccccc1` returned a 50% inhibitory concentration (IC50) of 380 nM.

`O=C(/N=c1\scc(-c2ccc(C(F)(F)F)cc2)n1-c1ccccc1)c1cccs1`: 380 nM corresponded to half-maximal inhibition (IC50).

In turn, `N#Cc1ccc(-c2cs/c(=N\C(=O)c3cccs3)n2-c2ccccc2)cc1` showed a 50% inhibitory concentration (IC50) of 380 nM.

The compound `Cc1ccc(-c2cs/c(=N\C(=O)c3cccs3)n2-c2ccccc2)cc1` came in with an IC50 of 380 nM.

Regarding `O=C(c1cccs1)c1sc(Nc2ccccc2)nc1-c1ccc(F)cc1`, the IC50 was 380 nM.

`O=C(c1cccs1)c1sc(N2CCOCC2)nc1-c1ccc(F)cc1`: the IC50 was determined as 380 nM.

As for `N#Cc1ccc(-c2nc(N(c3ccccc3)c3ccccc3)sc2C(=O)c2cccs2)cc1`, half-maximal inhibition (IC50) required 380 nM.

In the case of `O=C(/N=c1\scc(-c2ccc(F)cc2)n1-c1ccccc1)c1cccs1`, half-maximal inhibition (IC50) was put at 380 nM.

`O=C(c1cccs1)c1sc(N(c2ccccc2)c2ccccc2)nc1-c1ccc(F)cc1`: inhibition was half-maximal at 380 nM (IC50).

Turning to `O=C(c1cccs1)c1sc(N(c2ccccc2)c2ccccc2)nc1-c1ccc([N+](=O)[O-])cc1`, the IC50 was determined as 380 nM.

In the case of `O=C(c1cccs1)c1sc(N2CCOCC2)nc1-c1ccc(C(F)(F)F)cc1`, half-maximal inhibition (IC50) required 380 nM.

`Cc1ccc(-c2nc(N3CCOCC3)sc2C(=O)c2cccs2)cc1` displayed a concentration for half-maximal inhibition (IC50) of 380 nM.

As to `O=C(c1cccs1)c1sc(N(c2ccccc2)c2ccccc2)nc1-c1ccccc1`, inhibition was half-maximal at 380 nM (IC50).

Regarding `O=C(c1cccs1)c1sc(N2CCOCC2)nc1-c1ccc([N+](=O)[O-])cc1`, the concentration for half-maximal inhibition (IC50) came to 380 nM.

Consider `O=C(c1cccs1)c1sc(N(c2ccccc2)c2ccccc2)nc1-c1ccc(C(F)(F)F)cc1`, for which inhibition was half-maximal at 380 nM (IC50).

On to `Cc1ccc(-c2nc(N(c3ccccc3)c3ccccc3)sc2C(=O)c2cccs2)cc1`, for which half-maximal inhibition (IC50) was put at 380 nM.

The target of the next assay is T4, Polyunsaturated fatty acid lipoxygenase ALOX15 (Homo sapiens, UniProt P16050).
T4 sequence (P16050 whole entry): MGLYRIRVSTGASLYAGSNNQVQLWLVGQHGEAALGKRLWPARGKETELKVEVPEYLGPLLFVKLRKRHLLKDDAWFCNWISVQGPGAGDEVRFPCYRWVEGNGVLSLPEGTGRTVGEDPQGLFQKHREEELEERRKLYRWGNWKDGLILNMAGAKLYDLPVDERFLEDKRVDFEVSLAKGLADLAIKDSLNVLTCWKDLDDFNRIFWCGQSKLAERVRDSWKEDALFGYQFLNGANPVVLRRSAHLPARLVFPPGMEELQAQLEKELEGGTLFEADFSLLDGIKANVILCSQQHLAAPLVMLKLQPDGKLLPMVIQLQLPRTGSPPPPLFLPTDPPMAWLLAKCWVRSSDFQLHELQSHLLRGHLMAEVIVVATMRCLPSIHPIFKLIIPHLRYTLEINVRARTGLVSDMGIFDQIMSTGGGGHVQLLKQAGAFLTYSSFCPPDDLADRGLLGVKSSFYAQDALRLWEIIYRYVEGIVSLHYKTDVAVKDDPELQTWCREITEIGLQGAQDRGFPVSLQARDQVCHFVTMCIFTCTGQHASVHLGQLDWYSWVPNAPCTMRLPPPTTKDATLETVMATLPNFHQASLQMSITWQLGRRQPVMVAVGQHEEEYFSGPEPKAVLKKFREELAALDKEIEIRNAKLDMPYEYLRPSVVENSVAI
Put plainly: Inhibition of 15-LOX (unknown origin).
Conditions: not given
On to `Cc1nnc(/N=C2\NC(=O)/C(=C/c3ccc(Cl)cc3)S2)s1`, for which the concentration for half-maximal inhibition (IC50) is 3110 nM.

Turning to `Cc1nnc(/N=C2\NC(=O)/C(=C/c3ccc(Br)cc3)S2)s1`, the midpoint of inhibition, the IC50, lay at 3110 nM.

`O=C1CS/C(=N/c2nnc(-c3ccccc3O)s2)N1` showed an IC50 of 2540 nM.

For `CC(c1cc2ccccc2s1)N(O)C(N)=O` (stereo not given) [ZILEUTON], it took 15600 nM to reach half-maximal inhibition (IC50).

Take `O=C1CS/C(=N/c2nnc(-c3ccc(O)cc3)s2)N1`: the IC50 worked out at 2540 nM.

`Cc1nnc(/N=C2\NC(=O)/C(=C/C3CCCCC3)S2)s1`: half-maximal inhibition (IC50) required 3360 nM.

`Cc1ccc(-c2nnc(/N=C3\NC(=O)CS3)s2)cc1` returned a concentration for half-maximal inhibition (IC50) of 2540 nM.

Turning to `Cc1nnc(/N=C2\NC(=O)/C(=C/C=C/c3ccccc3)S2)s1`, inhibition was half-maximal at 3360 nM (IC50).

With `Cc1nnc(/N=C2\NC(=O)/C(=C/c3ccsc3)S2)s1`, the IC50 came to 3360 nM.

Compound `Cc1nnc(/N=C2\NC(=O)/C(=C/c3ccc(O)cc3)S2)s1` yielded an IC50 of 3110 nM.

With `Cc1nnc(/N=C2\NC(=O)CS2)s1`, half-maximal inhibition (IC50) was put at 2540 nM.

As to `Cc1nnc(/N=C2\NC(=O)/C(=C/c3ccc(C(C)C)cc3)S2)s1`, the IC50 is 3110 nM.

`Cc1nnc(/N=C2\NC(=O)/C(=C/c3ccc(N(C)C)cc3)S2)s1` had an IC50 of 3110 nM.

`Cc1nnc(/N=C2\NC(=O)/C(=C/c3ccc(F)cc3)S2)s1` gave an IC50 of 3110 nM.

`COc1ccc(/C=C2\S/C(=N/c3nnc(C)s3)NC2=O)cc1` had an IC50 of 3110 nM.

Compound `Cc1nnc(/N=C2\NC(=O)/C(=C/c3cccnc3)S2)s1` gave an IC50 of 3360 nM.

For `O=C1CS/C(=N/c2nnc(-c3ccc(Br)cc3)s2)N1`, the IC50 came to 2540 nM.

For orientation: IC50 means the point on the concentration scale where inhibition reaches its midpoint. High values mean weaker potency in that assay, low ones greater potency in that assay. As usually defined, the inhibition is the share of the control response that was lost under treatment. High values mean strong suppression, low ones little suppression.
